Experimental data published in the NIST ThermoML archive (doi:10.1016/j.tca.2014.04.026).

Assay: molar heat capacity at constant pressure; wn = mass fraction of the nth substance listed
Conditions: 101 kPa, Liquid, Small sample (50 mg) DSC

CCn1cc[n+](C)c1.N#C[C-](C#N)C#N [1-ethyl-3-methyl-1H-imidazolium tricyanomethanide] + CCn1cc[n+](C)c1.N#CN=C=[N-]
molar heat capacity at constant pressure [J/K/mol]
Conditions	w2 = 0	w2 = 0.25	w2 = 0.5	w2 = 0.75
296.2 K	357	354	344	335
300.2 K	360	355	346	338
304.2 K	362	356	347	339
308.2 K	364	357	348	340
312.2 K	366	358	350	342
316.2 K	367	359	352	343
320.2 K	369	360	352	344
324.2 K	370	361	354	345
328.2 K	372	363	356	347
332.2 K	374	365	358	349
336.2 K	377	367	360	352
340.2 K	379	370	362	354
344.2 K	382	372	365	356
348.2 K	384	374	367	359
352.2 K	387	377	370	362
356.2 K	390	381	373	365
360.2 K	393	383	376	368
364.2 K	396	385	380	371
368.2 K	399	388	383	374
372.2 K	403	391	387	378
